Test results from paper PMC7058083, “Structural basis of ligand binding modes at the human formyl peptide receptor 2” (Nature Communications, 2020).
Residue numbers refer to the chain shown, from its start. Residues, ends and D or L forms follow the SMILES beside them. *: point of attachment. For = O=C*

What was measured:
[1] = target: T1, wild-type (WT) and mutant FPR2 (Homo sapiens, UniProt P25090, D281G); assay: Saturation binding of WK(FITC)YMVm, flow cytometry on HEK293F cells; conditions: FPR2 D281G
T1 construct: expressed in transfected cells; host or cells: HEK293F
T1 sequence (P25090 1-351 D281G): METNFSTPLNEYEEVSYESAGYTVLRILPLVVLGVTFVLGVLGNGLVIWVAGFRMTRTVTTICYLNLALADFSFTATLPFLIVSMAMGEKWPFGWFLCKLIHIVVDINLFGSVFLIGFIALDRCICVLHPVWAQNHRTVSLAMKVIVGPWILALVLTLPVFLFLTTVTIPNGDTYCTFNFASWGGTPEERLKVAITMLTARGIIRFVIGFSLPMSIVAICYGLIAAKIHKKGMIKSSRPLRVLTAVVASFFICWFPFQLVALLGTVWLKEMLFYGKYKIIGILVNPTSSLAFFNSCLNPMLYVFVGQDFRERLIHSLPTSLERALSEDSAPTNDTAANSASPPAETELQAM
Experimental: (§1) Flag-tagged wild-type and mutant FPR2s were cloned into the pTT5 vector and expressed in HEK293F cells. The cells were harvested, and washed with Hanks’ Balanced Salt Solution (HBSS) buffer supplemented with 0.5% bovine serum albumin and 20 mM HEPES, pH 7.4. The cells were then resuspended in the same buffer to the final concentration of 1 × 10^6 cells per ml. The cell-surface expression was measured as mentioned above. […] Mean fluorescent intensity of each well was then read by a FCM (flow cytometry) reader (Millipore). […] For competitive binding of fMLFK, cells were plated in 96-well plates (100,000 cells per well), and incubated with WK(FITC)YMVm at 4 °C for 1 h. The following concentrations of WK(FITC)YMVm were used: 10 nM (wild type, L81^2.60F, E89G, and V105^3.32A), 30 nM (D281^7.32G), 40 nM (H102^3.29F, V160^4.60A, L268^ECL3A, N285^7.36A, and F292^7.43A), and 100 nM (L164^4.64A and T177A). Then increasing concentrations of fMLFK (100 nM–1 mM) were added, and incubated for another 1 h on ice. Mean fluorescent intensity values were measured by flow cytometry. Data were analyzed using Prism 7.0.

[2] = target: T2, wild-type (WT) and mutant FPR2 (Homo sapiens, UniProt P25090, E89G); assay: as above; conditions: FPR2 E89G
T2 construct: expressed in transfected cells; host or cells: HEK293F
T2 sequence (P25090 1-351 E89G): T1 sequence (P25090 1-351 D281G) with E89G, G281D
Experimental: as §1

[3] = target: T3, wild-type (WT) and mutant FPR2 (Homo sapiens, UniProt P25090, F257Y); assay: as above; conditions: FPR2 F257Y
T3 construct: expressed in transfected cells; host or cells: HEK293F
Experimental: as §1

[4] = target: T4, wild-type (WT) and mutant FPR2 (Homo sapiens, UniProt P25090, L198A); assay: as above; conditions: FPR2 L198A
T4 construct: expressed in transfected cells; host or cells: HEK293F
Experimental: as §1

[5] = target: T5, wild-type (WT) and mutant FPR2 (Homo sapiens, UniProt P25090, V160A); assay: as above; conditions: FPR2 V160A
T5 construct: expressed in transfected cells; host or cells: HEK293F
T5 sequence (P25090 1-351 V160A): T1 sequence (P25090 1-351 D281G) with V160A, G281D
Experimental: as §1

[6] = target: T6, wild-type (WT) and mutant FPR2 (Homo sapiens, UniProt P25090, H102F); assay: Competition binding of fMLFK with WK(FITC)YMVm, flow cytometry on HEK293F cells; conditions: FPR2 H102F; mean ± s.e.m., n=3; SEM
T6 construct: expressed in transfected cells; host or cells: HEK293F
T6 sequence (P25090 1-351 H102F): T1 sequence (P25090 1-351 D281G) with H102F, G281D
Experimental: as §1

[7] = target: T7, wild-type (WT) and mutant FPR2 (Homo sapiens, UniProt P25090, L268A); assay: as above; conditions: FPR2 L268A; mean ± s.e.m., n=3; SEM
T7 construct: expressed in transfected cells; host or cells: HEK293F
T7 sequence (P25090 1-351 L268A): T1 sequence (P25090 1-351 D281G) with L268A, G281D
Experimental: as §1

T4 sequence (P25090 whole entry L198A): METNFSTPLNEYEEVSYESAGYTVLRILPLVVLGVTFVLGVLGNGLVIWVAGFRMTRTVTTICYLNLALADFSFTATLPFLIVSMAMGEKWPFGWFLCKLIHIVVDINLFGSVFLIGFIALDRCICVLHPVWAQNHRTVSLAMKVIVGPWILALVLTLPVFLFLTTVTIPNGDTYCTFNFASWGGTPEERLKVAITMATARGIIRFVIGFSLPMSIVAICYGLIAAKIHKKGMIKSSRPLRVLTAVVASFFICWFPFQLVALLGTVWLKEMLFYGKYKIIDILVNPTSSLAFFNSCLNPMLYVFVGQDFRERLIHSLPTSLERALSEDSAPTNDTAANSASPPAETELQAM
T3 sequence (P25090 whole entry F257Y): as the sequence (P25090 whole entry L198A) above, with A198L, F257Y counted along it

Structure (SMILES): CSCC[C@H](NC(=O)[C@H](Cc1ccc(O)cc1)NC(=O)[C@H](CCCCNC(=S)Nc1ccc2c(c1)C(=O)OC21c2ccc(O)cc2Oc2cc(O)ccc21)NC(=O)[C@@H](N)Cc1c[nH]c2ccccc12)C(=O)N[C@H](C(=O)N[C@H](CCSC)C(N)=O)C(C)C [WK(FITC)YMVm]
- Span (% of WT), saturation binding [1]: 39 ± 3 % of WT
- Kd ([1]; mean ± s.e.m., n=4, SEM): 34.3 ± 14.1 nM
- Span (% of WT), saturation binding [2]: 134 ± 7 % of WT
- Kd ([2]; mean ± s.e.m., n=3, SEM): 29.3 ± 6.0 nM
- Span (% of WT), saturation binding [3]: 57 ± 6 % of WT
- Kd ([3]; mean ± s.e.m., n=3, SEM): 154 ± 48 nM
- Span (% of WT), saturation binding [4]: 84 ± 14 % of WT
- Kd ([4]; mean ± s.e.m., n=3, SEM): 41.5 ± 10.0 nM
- Span (% of WT), saturation binding [5]: 30 ± 4 % of WT
- Kd ([5]; mean ± s.e.m., n=4, SEM): 36.1 ± 18.1 nM

Structure (SMILES): CSCC[C@H](NC=O)C(=O)N[C@@H](CC(C)C)C(=O)N[C@@H](Cc1ccccc1)C(=O)N[C@@H](CCCCN)C(=O)O [fMLFK] (For-MLFK-OH)
- pKi, competition binding [6]: 3.85 ± 0.24
- pKi, competition binding [7]: 4.42 ± 0.15
